Results: ChEMBL document CHEMBL3045446, “In vitro antimicrobial and antimycobacterial activity of some chalcones and their derivatives” (2013)
In brackets after ≈: the same amount, converted by molar mass.

Legend:
Type in all cases: functional
[1] = test system: Pseudomonas aeruginosa; assay: Antimicrobial activity against Pseudomonas aeruginosa MTCC 741 assessed as growth inhibition after 24 hr by agar streak dilution method; conditions: MTCC 741, 24 h
[2] = test system: Escherichia coli; assay: Antimicrobial activity against Escherichia coli MTCC 739 assessed as growth inhibition after 24 hr by agar streak dilution method; conditions: MTCC 739, 24 h
[3] = test system: Staphylococcus aureus; assay: Antimicrobial activity against Staphylococcus aureus MTCC 96 assessed as growth inhibition after 24 hr by agar streak dilution method; conditions: MTCC 96, 24 h
[4] = test system: Klebsiella pneumoniae; assay: Antimicrobial activity against Klebsiella pneumoniae MTCC 109 assessed as diameter of growth inhibition zone after 24 hr
[5] = test system: Bacillus cereus; assay: Antimicrobial activity against Bacillus cereus MTCC 430 assessed as growth inhibition after 24 hr by agar streak dilution method; conditions: MTCC 430, 24 h
[6] = test system: Shigella flexneri; assay: Antimicrobial activity against Shigella flexneri MTCC1457 assessed as growth inhibition after 24 hr by agar streak dilution method; conditions: MTCC1457, 24 h
[7] = test system: Proteus vulgaris; assay: Antimicrobial activity against Proteus vulgaris MTCC 1771 assessed as diameter of growth inhibition zone after 24 hr
[8] = test system: Candida albicans; assay: Antimicrobial activity against Candida albicans MTCC 183 assessed as diameter of growth inhibition zone after 48 hr
[9] = test system: Aspergillus clavatus; assay: Antimicrobial activity against Aspergillus clavatus MTCC 1323 assessed as growth inhibition after 48 hr by agar streak dilution method; conditions: MTCC 1323, 48 h
[10] = test system: Aspergillus niger; assay: Antimicrobial activity against Aspergillus niger MTCC 282 assessed as growth inhibition after 48 hr by agar streak dilution method; conditions: MTCC 282, 48 h
[11] = test system: Proteus vulgaris; assay: Antimicrobial activity against Proteus vulgaris MTCC 1771 assessed as growth inhibition after 24 hr by agar streak dilution method; conditions: MTCC 1771, 24 h
[12] = test system: Candida albicans; assay: Antimicrobial activity against Candida albicans MTCC 183 assessed as growth inhibition after 48 hr by agar streak dilution method; conditions: MTCC 183, 48 h
[13] = test system: Bacillus cereus; assay: Antimicrobial activity against Bacillus cereus MTCC 430 assessed as diameter of growth inhibition zone after 24 hr
[14] = test system: Salmonella typhi; assay: Antimicrobial activity against Salmonella enterica subsp. enterica serovar Typhi MTCC 733 assessed as diameter of growth inhibition zone after 24 hr
[15] = test system: Aspergillus niger; assay: Antimicrobial activity against Aspergillus niger MTCC 282 assessed as diameter of growth inhibition zone after 48 hr
[16] = test system: Aspergillus clavatus; assay: Antimicrobial activity against Aspergillus clavatus MTCC 1323 assessed as diameter of growth inhibition zone after 48 hr
[17] = test system: Pseudomonas aeruginosa; assay: Antimicrobial activity against Pseudomonas aeruginosa MTCC 741 assessed as diameter of growth inhibition zone after 24 hr
[18] = test system: Escherichia coli; assay: Antimicrobial activity against Escherichia coli MTCC 739 assessed as diameter of growth inhibition zone after 24 hr
[19] = test system: Shigella flexneri; assay: Antimicrobial activity against Shigella flexneri MTCC1457 assessed as diameter of growth inhibition zone after 24 hr
[20] = test system: Salmonella typhi; assay: Antimicrobial activity against Salmonella enterica subsp. enterica serovar Typhi MTCC 733 assessed as growth inhibition after 24 hr by agar streak dilution method; conditions: MTCC 733, 24 h
[21] = test system: Klebsiella pneumoniae; assay: Antimicrobial activity against Klebsiella pneumoniae MTCC 109 assessed as growth inhibition after 24 hr by agar streak dilution method; conditions: MTCC 109, 24 h
[22] = test system: Staphylococcus aureus; assay: Antimicrobial activity against Staphylococcus aureus MTCC 96 assessed as diameter of growth inhibition zone after 24 hr
[23] = test system: Aspergillus fumigatus; assay: Antimicrobial activity against Aspergillus fumigatus MTCC 343 assessed as diameter of growth inhibition zone after 48 hr
[24] = test system: Aspergillus fumigatus; assay: Antimicrobial activity against Aspergillus fumigatus MTCC 343 assessed as growth inhibition after 48 hr by agar streak dilution method; conditions: MTCC 343, 48 h
[25] = test system: Mycobacterium tuberculosis; assay: Antituberculosis activity against Mycobacterium tuberculosis H37Rv assessed as growth inhibition after 12 to 28 days by L-J MIC method; conditions: for MIC: Mycobacterium tuberculosis, H37Rv

| SMILES | MIC [1] [mg/L] | MIC [2] [mg/L] | MIC [3] [mg/L] | diameter of the inhibition zone (DIZ) [4] [mm] | MIC [5] [mg/L] | MIC [6] [mg/L] | diameter of the inhibition zone (DIZ) [7] [mm] | diameter of the inhibition zone (DIZ) [8] [mm] | MIC [9] [mg/L] | MIC [10] [mg/L] | MIC [11] [mg/L] | MIC [12] [mg/L] | diameter of the inhibition zone (DIZ) [13] [mm] | diameter of the inhibition zone (DIZ) [14] [mm] | diameter of the inhibition zone (DIZ) [15] [mm] | diameter of the inhibition zone (DIZ) [16] [mm] | diameter of the inhibition zone (DIZ) [17] [mm] | diameter of the inhibition zone (DIZ) [18] [mm] | diameter of the inhibition zone (DIZ) [19] [mm] | MIC [20] [mg/L] | further results |
| --- | --- | --- | --- | --- | --- | --- | --- | --- | --- | --- | --- | --- | --- | --- | --- | --- | --- | --- | --- | --- | --- |
| O=C(/C=C/c1ccc(O)cc1O)c1ccc(Nc2cc(=O)oc3ccccc23)cc1 | 25 (≈ 62.6 µM) | 50 (≈ 125 µM) | 50 (≈ 125 µM) | 21 | 100 (≈ 250 µM) | 100 (≈ 250 µM) | 20 | 16 | 25 (≈ 62.6 µM) | 50 (≈ 125 µM) | 25 (≈ 62.6 µM) | 100 (≈ 250 µM) | 16 | 21 | 19 | 20 | 19 | 19 | 17 | 25 (≈ 62.6 µM) | MIC [21]: 25 mg/L (≈ 62.6 µM); diameter of the inhibition zone (DIZ) [22]: 20 mm; diameter of the inhibition zone (DIZ) [23]: 22 mm; MIC [24]: 25 mg/L (≈ 62.6 µM); growth inhibition (GI) [25]: 95%; MIC [25]: 500 mg/L (≈ 1250 µM) |
| COc1ccc(-c2cc(-c3ccc(Nc4cc(=O)oc5ccccc45)cc3)nc(N)n2)cc1 | 12.5 (≈ 28.6 µM) | 25 (≈ 57.3 µM) | 12.5 (≈ 28.6 µM) | 20 | 12.5 (≈ 28.6 µM) | 50 (≈ 115 µM) | 24 | 24 | 12.5 (≈ 28.6 µM) | 12.5 (≈ 28.6 µM) | 12.5 (≈ 28.6 µM) | 25 (≈ 57.3 µM) | 21 | 19 | 23 | 23 | 21 | 22 | 19 | 50 (≈ 115 µM) | MIC [21]: 25 mg/L (≈ 57.3 µM); diameter of the inhibition zone (DIZ) [22]: 22 mm; diameter of the inhibition zone (DIZ) [23]: 20 mm; MIC [24]: 25 mg/L (≈ 57.3 µM); growth inhibition (GI) [25]: 98%; MIC [25]: 62.5 mg/L (≈ 143 µM) |
| N#Cc1c(-c2ccc(Cl)cc2)cc(-c2ccc(Nc3cc(=O)oc4ccccc34)cc2)nc1N | 50 (≈ 108 µM) | 25 (≈ 53.8 µM) | 12.5 (≈ 26.9 µM) | 25 | 25 (≈ 53.8 µM) | 12.5 (≈ 26.9 µM) | 26 | 26 | 25 (≈ 53.8 µM) | 25 (≈ 53.8 µM) | 6.25 (≈ 13.4 µM) | 6.25 (≈ 13.4 µM) | 21 | 24 | 20 | 21 | 19 | 21 | 23 | 12.5 (≈ 26.9 µM) | MIC [21]: 6.25 mg/L (≈ 13.4 µM); diameter of the inhibition zone (DIZ) [22]: 24 mm; diameter of the inhibition zone (DIZ) [23]: 24 mm; MIC [24]: 12.5 mg/L (≈ 26.9 µM); growth inhibition (GI) [25]: 98%; MIC [25]: 100 mg/L (≈ 215 µM) |
| Nc1nc(-c2ccc(Nc3cc(=O)oc4ccccc34)cc2)cc(-c2ccccc2O)n1 | 50 (≈ 118 µM) | 50 (≈ 118 µM) | 50 (≈ 118 µM) | 21 | 50 (≈ 118 µM) | 25 (≈ 59.2 µM) | 19 | 18 | 6.25 (≈ 14.8 µM) | 25 (≈ 59.2 µM) | 50 (≈ 118 µM) | 50 (≈ 118 µM) | 19 | 17 | 21 | 25 | 18 | 19 | 20 | 100 (≈ 237 µM) | MIC [21]: 12.5 mg/L (≈ 29.6 µM); diameter of the inhibition zone (DIZ) [22]: 18 mm; diameter of the inhibition zone (DIZ) [23]: 23 mm; MIC [24]: 12.5 mg/L (≈ 29.6 µM); growth inhibition (GI) [25]: 97%; MIC [25]: 250 mg/L (≈ 592 µM) |
| Cc1ccc(-c2cc(-c3ccc(Nc4cc(=O)oc5ccccc45)cc3)nc(N)n2)cc1 | 50 (≈ 119 µM) | 100 (≈ 238 µM) | 50 (≈ 119 µM) | 16 | 50 (≈ 119 µM) | 25 (≈ 59.5 µM) | 21 | 16 | 100 (≈ 238 µM) | 25 (≈ 59.5 µM) | 25 (≈ 59.5 µM) | 50 (≈ 119 µM) | 19 | 18 | 21 | 16 | 19 | 15 | 22 | 50 (≈ 119 µM) | MIC [21]: 100 mg/L (≈ 238 µM); diameter of the inhibition zone (DIZ) [22]: 18 mm; diameter of the inhibition zone (DIZ) [23]: 18 mm; MIC [24]: 50 mg/L (≈ 119 µM); growth inhibition (GI) [25]: 98%; MIC [25]: 200 mg/L (≈ 476 µM) |
| COc1ccc(/C=C/C(=O)c2ccc(Nc3cc(=O)oc4ccccc34)cc2)cc1OC | 50 (≈ 117 µM) | 25 (≈ 58.5 µM) | 25 (≈ 58.5 µM) | 17 | 50 (≈ 117 µM) | 25 (≈ 58.5 µM) | 19 | 17 | 100 (≈ 234 µM) | 25 (≈ 58.5 µM) | 50 (≈ 117 µM) | 100 (≈ 234 µM) | 19 | 16 | 21 | 16 | 18 | 22 | 20 | 100 (≈ 234 µM) | MIC [21]: 100 mg/L (≈ 234 µM); diameter of the inhibition zone (DIZ) [22]: 21 mm; diameter of the inhibition zone (DIZ) [23]: 17 mm; MIC [24]: 50 mg/L (≈ 117 µM); growth inhibition (GI) [25]: 97%; MIC [25]: 200 mg/L (≈ 468 µM) |
